Patent US20190100557A1, “PRO[…], A GENE TRANSFER ENHANCER” (Pharis Biotec GmbH, priority 2013, published 2019)
Non-standard residues stand in square brackets, D forms with d. Residues, ends and D or L forms follow the SMILES beside them. pGlu = O=C1CC[C@@H](C(=O)O)N1

Key:
[1] = Storage stability in aqueous solution followed by HPLC (FIG. 1); format: physicochemical; conditions: storage at 4° C. for 13 days, in vitro
Method: FIG. 1 is a high pressure liquid chromatography (HPLC) chromatogram of protransduzin A and protransduzin B.
In the left column of FIG. 1 (HPLC chromatogram), results for protransduzin A upon storage for 0-13 days at −20° C. and at 4° C. (13 days) are compared with the results for protransduzin B under the same conditions.

cells = assay: Transduction of cells with protransduzin B (vectors preincubated with peptide fibrils); format: cell-based; conditions: protransduzin B 25 μg/ml added to vectors, cells incubated 2 days
Method: Dissolve 0.5 mg of protransduzin B in 50 μl of DMSO. Then add 450 μl of PBS to the solution, fibrils forming within 3 min. Add this stock solution (1 mg/ml) to the vectors to obtain a concentration of protransduzin B of 25 μg/ml. Vortex the solution for 1 min, then centrifuge with 5000 g for 5 min. The supernatant is discarded, and the pellet is suspended in a little PBS and added to the cells. The cells are incubated in an incubator for 2 days.

## CC[C@H](C)[C@H](NC(=O)[C@H](CCCCN)NC(=O)[C@H](CS)NC(=O)[C@@H]1CCC(=O)N1)C(=O)N[C@@H](CCCCN)C(=O)N[C@@H](CCC(N)=O)C(=O)N[C@H](C(=O)N[C@H](C(=O)N[C@@H](CC(N)=O)C(=O)N[C@@H](CCSC)C(=O)N[C@@H](Cc1c[nH]c2ccccc12)C(=O)N[C@@H](CCC(N)=O)C(=O)O)[C@@H](C)CC)[C@@H](C)CC [protransduzin B] ([pGlu]CKIKQIINMWQ-OH)
[1]
  degradation upon storage (HPLC peak height): hardly degraded at all
cells
  cells transduced: Up to 96%
  transduction rate: significantly enhanced
